# According to ChEMBL document CHEMBL1150575, “Microbial transformation of hypoestenone” (2001):
# What was measured:
# Type in all cases: functional
# Cryptococcus neoformans = assay: Antimicrobial activity against Cryptococcus neoformans by microtiter-plate assay
# Pseudomonas aeruginosa = assay: Antimicrobial activity against Pseudomonas aeruginosa by microtiter-plate assay
# Plasmodium falciparum = assay: Antiparasitic activity against Plasmodium falciparum W2
MIC (Cryptococcus neoformans),MIC (Pseudomonas aeruginosa),MIC (Plasmodium falciparum),SMILES
20 µg/mL,45 µg/mL,2.8 µg/mL,CC1=C2C[C@]3(C)C(=O)C[C@@H](C(C)C)[C@H]3C/C=C(/C)[C@@H]2CC1=O [HYPOESTENONE]
50 µg/mL,,,CC1=C2C[C@]3(C)C(=O)C[C@@H](C(C)C)[C@H]3C[C@H]3O[C@@]3(C)[C@@H]2CC1=O
